The record followed here is patent publication US20230165873A1, “Methods of Use for Single Molecule Compounds Providing Multi-Target Inhibition to Treat Covid 19” (priority 2020, published 2023).

The test system of data set [1] is mice carrying the Fli1 deletion. The experiment in a line: Bleomycin-induced lung fibrosis in mice carrying the Fli1 deletion. The conditions noted are these: 50 mg/kg on day 9, 12, 15 after intra-tracheal bleomycin 0.4 mg/kg; sacrifice day 21. In kind it is in vivo. An excerpt: Bleomycin-induced lung fibrosis is the most frequently used rodent model for lung fibrosis, and inflammatory and fibrotic events similar to those seen in human pulmonary fibrosis (Am J Respir Cell Mol Biol. 2013 Aug; 49(2): 167-179; https://www.atsjournals.org/doi/full/10.1165/rcmb.2013-0094TR; PMID: 23526222). Systemic sclerosis (SSc) is manifested by vasculopathy, immune dysregulation and fibrosis of the skin and certain internal organs, especially lungs (Nat Commun. 2014; 5: 5797.; https://www.nature.com/articles/ncomms6797; PMID: 25504335). Friend leukemia integration 1 (Fli1) is a potent repressor of the type I collagen gene. […] Bleomycin was administered intra-tracheally to mice (0.4 mg/kg) and no drug was given during the inflammatory phase (8 days). […] IRS-1 is a component of the insulin signaling pathway which is involved in the increased collagen production by cells carrying the Fli1 deletion.

Data set [2] relates to SARS-CoV-2. In words: microbe, parasite or virus in culture. In kind it is cell-based. The conditions noted are these: read-out: IC50 based on SARS-CoV-2 viral loads in culture supernatant.
In data set [3] the test system is SARS-CoV-2. In words: microbe, parasite or virus in culture. In kind it is cell-based. As to conditions: read-out: IC50 based on dose response curve by cytopathic effect (CPE). On the technique in general: Damage to the host cells serves as the signal in cytopathic effect assays.
In data set [4] the test system is SARS-CoV-2. The experiment in a line: microbe, parasite or virus in culture. In kind it is cell-based. The conditions noted are these: for EC50: read-out: Median Effective Dose.
Data set [5] deals with SARS-CoV-2. In words: microbe, parasite or virus in culture. In kind it is cell-based. As to conditions: for EC50: read-out: Median Effective Dose. The source holds these as a separate data set.
For the next data set, the target named is T1, BRD4-1 (Homo sapiens, UniProt O60885).
T1 construct: BRD4-1
The experiment in a line: BRD4-1 in vitro inhibition. In kind it is binding.

A further data set has as its target T2, BRD4-2 (Homo sapiens, UniProt O60885).
T2 construct: BRD4-2
In words: BRD4-2 in vitro inhibition. In kind it is binding.

A further data set addresses PI3K beta (Homo sapiens, UniProt P42338). In words: PI3K beta in vitro inhibition. In kind it is biochemical.
The next data set addresses PI3K gamma (Homo sapiens, UniProt P48736). In words: PI3K gamma in vitro inhibition. In kind it is biochemical. The procedure, abridged: (§1)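 IC50 values were obtained with standard in vitro enzyme inhibition assays, which may be run by a commercial service provider.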
For another data set, the target named is BTK (Homo sapiens, UniProt Q06187). In words: BTK in vitro inhibition. In kind it is biochemical. The method, then:
(§2) The kinase or bromodomain inhibitory activity of a compound of the invention can be determined by routine methods known to the skilled artisan without undue experimentation, or by procuring relevant analysis by a commercial vendor offering such services. […] In vivo, PI3K inhibition can be determined from target tissue biopsies by standard tissue processing in which cells are disrupted and Western Blot analysis is performed to determine the presence or absence of pAKT (substrate of PI3K) relative to a control sample. PI3K inhibition assays and BTK inhibition assays are known in the art and can be procured commercially through vendors such as Reaction Biology (Malvern, PA). The activity of a compound of the invention as an inhibitor of a bromodomain-containing protein, such as a BET protein, including BRD2, BRD3, BRD4, and/or BRDT, or an isoform or mutant thereof, may be determined in vitro, in vivo, or in a cell line. In vitro assays include assays that determine inhibition of bromodomain-containing proteins. Alternatively, inhibitor binding may be determined by running a competition experiment where a provided compound is incubated with a bromodomain-containing protein, such as a BET protein bound to known ligands, labeled or unlabeled. In vitro bromodomain inhibition assays can be performed using Alpha Screen Technology (Perkin Elmer Life and Analytical Sciences, Shelton, CT). In vivo bromodomain inhibition can be determined indirectly by evaluating the amount of a protein whose gene transcription is influenced or controlled by the bromodomain protein, for example, MYCN protein transcription is controlled by BRD4 (J.E. Delmore et al., Cell 2011, 146, 904-917; A. Puissant, Cancer Discov. 2013, 3, 308-323).
(§3) IC50 inhibition data against the indicated targets were determined for compounds of the invention using standard in vitro assays (Tables 8 and 9).

The target in another data set is BTK C481S (Homo sapiens, UniProt Q06187, C481S). In words: BTK C481S in vitro inhibition. In kind it is biochemical. The method, then: as §2, §3
A further data set concerns the target mTOR (Homo sapiens, UniProt P42345). In words: mTOR in vitro inhibition. In kind it is biochemical. The method, then:
as §2, §3

In data set [6] the test system is SARS-CoV-2. As to conditions: at effective anti-viral concentrations; Hela-ACE2 cells.
Data set [7] concerns SARS-CoV-2. In words: microbe, parasite or virus in culture. As to conditions: for IC50: Severe acute respiratory syndrome coronavirus 2, HeLa-ACE2, read-out: IC50 inhibition of SARS-CoV-2 (viral plaques).
Data set [8] has as its system SARS-CoV-2. In words: SARS-CoV-2 viral load in culture supernatant (RT-QPCR), UNCN1T cells.
In data set [9] the test system is SARS-CoV-2. The experiment in a line: Cytopathic effect (CPE), CellTiter-Glo, SARS-CoV-2 infected UNCN1T cells. The conditions noted are these: read-out: IC50 based on dose response curve by cytopathic effect (CPE), 24 hrs post-infection.
The next data set has as its target PI3K alpha (Homo sapiens, UniProt P42336). In words: PI3K alpha in vitro inhibition. In kind it is biochemical.
In another data set the target is CDK4 cyclinD1 (Homo sapiens, UniProt P11802). The experiment in a line: CDK4 cyclinD1 in vitro inhibition. In kind it is biochemical. A digest of the protocol: as §1
Another data set addresses CDK6 cyclinD1 (Homo sapiens, UniProt Q00534). The experiment in a line: CDK6 cyclinD1 in vitro inhibition. In kind it is biochemical. A digest of the protocol: as §1
Where [10] appears, read: Severe acute respiratory syndrome coronavirus 2, 24 h.
[11] abbreviates: Severe acute respiratory syndrome coronavirus 2, 48 h.
[12] abbreviates: read-out: IC50 based on SARS-CoV-2 viral loads in culture supernatant, 24 hrs post-infection.
The mark [13] stands for this setting: read-out: IC50 based on SARS-CoV-2 viral loads in culture supernatant, 48 hrs post-infection.

Like-named read-outs stand apart in the source and are kept apart here.

Chain of PI3K gamma (P48736 whole entry): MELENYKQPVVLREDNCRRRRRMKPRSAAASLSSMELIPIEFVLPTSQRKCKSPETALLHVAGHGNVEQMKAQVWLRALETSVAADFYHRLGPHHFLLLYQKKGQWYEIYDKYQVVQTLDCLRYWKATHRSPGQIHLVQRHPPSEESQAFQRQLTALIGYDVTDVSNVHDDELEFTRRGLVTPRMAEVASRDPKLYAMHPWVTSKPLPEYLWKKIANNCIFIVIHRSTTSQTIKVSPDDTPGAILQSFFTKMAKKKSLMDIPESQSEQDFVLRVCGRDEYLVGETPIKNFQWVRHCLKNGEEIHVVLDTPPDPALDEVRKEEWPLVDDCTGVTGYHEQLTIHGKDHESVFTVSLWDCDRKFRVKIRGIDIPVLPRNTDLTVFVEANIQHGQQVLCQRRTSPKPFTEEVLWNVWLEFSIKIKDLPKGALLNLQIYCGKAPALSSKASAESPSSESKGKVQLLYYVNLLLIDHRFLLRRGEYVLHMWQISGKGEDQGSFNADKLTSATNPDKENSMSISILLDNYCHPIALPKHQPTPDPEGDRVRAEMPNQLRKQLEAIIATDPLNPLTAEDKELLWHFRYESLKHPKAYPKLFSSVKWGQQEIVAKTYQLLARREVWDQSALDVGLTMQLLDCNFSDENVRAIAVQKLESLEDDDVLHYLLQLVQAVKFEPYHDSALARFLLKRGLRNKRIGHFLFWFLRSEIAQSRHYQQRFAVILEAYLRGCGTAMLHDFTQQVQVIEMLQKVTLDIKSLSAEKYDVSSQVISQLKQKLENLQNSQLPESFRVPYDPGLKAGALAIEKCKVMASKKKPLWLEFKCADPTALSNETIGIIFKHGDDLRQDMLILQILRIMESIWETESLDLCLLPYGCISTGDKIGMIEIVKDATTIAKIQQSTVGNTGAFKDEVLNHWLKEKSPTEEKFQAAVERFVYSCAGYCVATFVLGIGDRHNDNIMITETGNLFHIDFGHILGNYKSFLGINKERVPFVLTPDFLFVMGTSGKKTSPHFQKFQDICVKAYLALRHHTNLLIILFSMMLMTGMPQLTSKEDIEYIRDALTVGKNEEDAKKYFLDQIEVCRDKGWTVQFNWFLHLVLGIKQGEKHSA
Chain of PI3K beta (P42338 whole entry): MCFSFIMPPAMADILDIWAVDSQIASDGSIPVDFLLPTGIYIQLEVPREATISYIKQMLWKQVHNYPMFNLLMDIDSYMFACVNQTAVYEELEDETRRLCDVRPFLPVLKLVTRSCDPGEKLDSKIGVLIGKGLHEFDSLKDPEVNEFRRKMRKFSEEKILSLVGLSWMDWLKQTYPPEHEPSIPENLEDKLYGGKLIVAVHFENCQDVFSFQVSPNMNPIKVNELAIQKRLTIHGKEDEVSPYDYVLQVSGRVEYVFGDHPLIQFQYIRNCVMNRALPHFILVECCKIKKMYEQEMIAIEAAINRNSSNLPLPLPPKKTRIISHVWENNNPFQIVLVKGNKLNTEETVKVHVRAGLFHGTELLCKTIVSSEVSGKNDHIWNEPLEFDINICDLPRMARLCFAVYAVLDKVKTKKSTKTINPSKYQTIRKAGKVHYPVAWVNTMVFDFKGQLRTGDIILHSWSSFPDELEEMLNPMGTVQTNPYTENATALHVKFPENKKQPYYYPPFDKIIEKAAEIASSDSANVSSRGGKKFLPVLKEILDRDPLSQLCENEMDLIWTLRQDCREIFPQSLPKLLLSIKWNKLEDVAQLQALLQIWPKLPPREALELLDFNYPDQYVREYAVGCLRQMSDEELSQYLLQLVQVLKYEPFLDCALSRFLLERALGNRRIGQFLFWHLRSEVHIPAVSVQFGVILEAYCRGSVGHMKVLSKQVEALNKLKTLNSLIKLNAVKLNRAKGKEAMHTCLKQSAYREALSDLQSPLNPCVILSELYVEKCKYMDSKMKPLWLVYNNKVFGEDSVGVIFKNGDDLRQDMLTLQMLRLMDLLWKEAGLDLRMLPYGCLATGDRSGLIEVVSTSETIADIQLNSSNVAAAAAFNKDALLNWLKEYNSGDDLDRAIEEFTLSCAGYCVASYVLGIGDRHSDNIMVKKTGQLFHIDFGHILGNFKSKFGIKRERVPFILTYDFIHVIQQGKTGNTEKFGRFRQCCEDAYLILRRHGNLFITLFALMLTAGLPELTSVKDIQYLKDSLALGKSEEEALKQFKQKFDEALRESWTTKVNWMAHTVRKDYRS
Chain of PI3K beta (P27986 whole entry partner): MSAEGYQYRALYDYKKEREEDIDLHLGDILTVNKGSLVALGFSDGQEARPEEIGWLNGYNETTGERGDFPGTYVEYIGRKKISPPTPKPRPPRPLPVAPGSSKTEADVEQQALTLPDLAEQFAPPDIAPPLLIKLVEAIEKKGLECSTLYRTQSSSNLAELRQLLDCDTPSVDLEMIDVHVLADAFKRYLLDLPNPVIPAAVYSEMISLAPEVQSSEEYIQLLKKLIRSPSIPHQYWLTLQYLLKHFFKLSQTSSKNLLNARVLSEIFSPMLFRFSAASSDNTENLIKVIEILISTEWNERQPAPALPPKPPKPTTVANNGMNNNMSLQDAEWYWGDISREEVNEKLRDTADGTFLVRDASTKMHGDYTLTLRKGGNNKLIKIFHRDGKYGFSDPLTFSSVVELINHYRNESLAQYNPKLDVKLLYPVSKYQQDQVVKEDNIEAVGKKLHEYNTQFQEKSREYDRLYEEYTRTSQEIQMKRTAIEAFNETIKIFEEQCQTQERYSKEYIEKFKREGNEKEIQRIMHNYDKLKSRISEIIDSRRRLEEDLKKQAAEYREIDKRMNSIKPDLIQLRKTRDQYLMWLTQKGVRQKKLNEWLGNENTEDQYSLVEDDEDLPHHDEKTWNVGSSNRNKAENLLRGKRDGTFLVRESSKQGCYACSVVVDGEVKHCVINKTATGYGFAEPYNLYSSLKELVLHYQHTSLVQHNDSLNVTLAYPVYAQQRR
Chain of BTK C481S (Q06187 whole entry C481S): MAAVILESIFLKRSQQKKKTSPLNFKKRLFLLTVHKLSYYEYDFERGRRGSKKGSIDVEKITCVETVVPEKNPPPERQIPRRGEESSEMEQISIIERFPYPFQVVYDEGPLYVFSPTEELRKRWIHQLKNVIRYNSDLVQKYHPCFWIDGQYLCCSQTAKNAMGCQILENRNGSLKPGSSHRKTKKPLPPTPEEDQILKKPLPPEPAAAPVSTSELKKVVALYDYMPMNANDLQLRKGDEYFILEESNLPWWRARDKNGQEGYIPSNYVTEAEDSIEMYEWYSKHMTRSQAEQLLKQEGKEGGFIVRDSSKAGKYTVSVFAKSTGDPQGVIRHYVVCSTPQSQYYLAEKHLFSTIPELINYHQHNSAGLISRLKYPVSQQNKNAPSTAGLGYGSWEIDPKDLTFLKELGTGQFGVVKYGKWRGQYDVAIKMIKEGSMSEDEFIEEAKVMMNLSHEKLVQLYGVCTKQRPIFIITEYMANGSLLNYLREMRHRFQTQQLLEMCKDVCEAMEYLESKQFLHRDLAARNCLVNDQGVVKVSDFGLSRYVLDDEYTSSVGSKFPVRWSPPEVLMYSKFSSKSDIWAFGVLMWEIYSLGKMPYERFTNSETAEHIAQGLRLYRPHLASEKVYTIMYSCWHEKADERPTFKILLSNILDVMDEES
Chain of BTK (Q06187 whole entry): as the sequence (Q06187 whole entry C481S) above, with S481C counted along it
Chain of PI3K alpha (P42336 whole entry): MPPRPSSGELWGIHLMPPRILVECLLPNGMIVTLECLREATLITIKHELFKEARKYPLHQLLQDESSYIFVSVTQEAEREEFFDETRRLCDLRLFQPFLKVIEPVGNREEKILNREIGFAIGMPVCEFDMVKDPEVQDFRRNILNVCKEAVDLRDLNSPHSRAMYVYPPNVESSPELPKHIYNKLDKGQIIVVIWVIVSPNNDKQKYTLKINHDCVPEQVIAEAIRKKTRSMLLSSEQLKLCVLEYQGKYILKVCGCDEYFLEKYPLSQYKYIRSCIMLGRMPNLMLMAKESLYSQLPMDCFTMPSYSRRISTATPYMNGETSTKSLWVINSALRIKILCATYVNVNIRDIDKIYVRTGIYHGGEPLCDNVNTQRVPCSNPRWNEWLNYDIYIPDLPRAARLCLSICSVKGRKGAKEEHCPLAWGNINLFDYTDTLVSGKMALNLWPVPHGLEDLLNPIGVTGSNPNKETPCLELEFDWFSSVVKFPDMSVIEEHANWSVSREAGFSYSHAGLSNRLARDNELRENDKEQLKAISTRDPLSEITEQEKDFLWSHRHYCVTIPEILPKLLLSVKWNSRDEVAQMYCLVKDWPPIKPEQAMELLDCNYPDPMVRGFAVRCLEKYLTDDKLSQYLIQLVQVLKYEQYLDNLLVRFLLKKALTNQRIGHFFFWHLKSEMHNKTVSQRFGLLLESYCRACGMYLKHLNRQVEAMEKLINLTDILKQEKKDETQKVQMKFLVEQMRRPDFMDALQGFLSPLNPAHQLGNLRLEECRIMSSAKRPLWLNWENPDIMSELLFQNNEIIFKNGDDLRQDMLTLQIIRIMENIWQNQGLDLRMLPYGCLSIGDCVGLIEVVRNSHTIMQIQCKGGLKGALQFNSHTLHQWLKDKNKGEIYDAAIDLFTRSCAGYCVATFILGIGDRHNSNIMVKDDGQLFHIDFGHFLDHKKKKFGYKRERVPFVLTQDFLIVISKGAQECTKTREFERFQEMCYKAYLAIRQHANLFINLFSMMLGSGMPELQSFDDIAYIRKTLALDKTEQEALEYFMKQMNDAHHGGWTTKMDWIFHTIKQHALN
Chain of PI3K alpha (P27986 whole entry partner): as the sequence (P27986 whole entry partner) above

By IC50 is commonly meant the concentration that inhibits the measured activity by half. The term inhibition denotes the percentage by which the read-out fell short of the control. A low value points to a response near the control. Regarding `O=c1cc(N2CCOCC2)oc2c(-c3ccc4c(c3)OCCO4)csc12` [Compound 0], the “prevention of development of fibrosis (Masson Trichrome staining, tissue collagen content, Ashcroft score)” value in data set [1] is “remarkably effective in preventing the development of fibrosis”. Further, the IC50 with SARS-CoV-2 [2] (setting [10]) is 1020 nM; in the data set on SARS-CoV-2 [2] (setting [11]), 3220 nM; in the data set with SARS-CoV-2 [3] (setting [10]) it was 1800 nM; in the data set on SARS-CoV-2 [3] (setting [11]), 4400 nM; against BRD4-1 it was less than 500 nM; against BRD4-2, 500 to 1000 nM. Moreover, the half-inhibitory concentration (IC50) against PI3K beta was less than 500 nM; at PI3K gamma (IC50 inhibition PI3K gamma), less than 500 nM; at BTK, 10000 to 45000 nM; at BTK C481S it was 10000 to 45000 nM; on mTOR, less than 500 nM; with SARS-CoV-2 [7] it was 900 nM. Further, the IC50 was 1520 nM with SARS-CoV-2 [8] (setting [12]), 1580 nM in the data set on SARS-CoV-2 [8] (setting [13]) and 250 nM with SARS-CoV-2 [9]. Moreover, the EC50 amounted to 2620 nM in the data set with SARS-CoV-2 [4] (Severe acute respiratory syndrome coronavirus 2, VERO STAT1 KO Cells, 24 hours post-infection) and 1840 nM in the data set on SARS-CoV-2 [5] (Severe acute respiratory syndrome coronavirus 2, UNCN1T Cells, 24 hours post-infection). In the data set on SARS-CoV-2 [6], the cellular cytotoxicity result is “no cellular cytotoxicity is noted”. The same molecule gave an inhibition at 2.4 µM in the data set with SARS-CoV-2 [7] (Severe acute respiratory syndrome coronavirus 2, HeLa-ACE2) of 94%.
Take `CN(C)C(=O)c1cc2cnc(Nc3ccc(-c4csc5c(=O)cc(N6CCOCC6)oc45)nc3)nc2n1C1CCCC1` [Compound 7]: the half-inhibitory concentration (IC50) was 10000 to 45000 nM on BRD4-1; 1000 to 10000 nM on BRD4-2; 1000 to 10000 nM against PI3K alpha; 10000 to 45000 nM on PI3K beta; 10000 to 45000 nM on PI3K gamma (read-out: IC50 inhibition PI3K gamma); less than 500 nM at CDK4 cyclinD1. Also, the figures for the half-maximal inhibitory concentration (IC50) against CDK6 cyclinD1 and against mTOR were less than 500 nM and 1000 to 10000 nM, respectively.
`CCC(CC)COC(=O)[C@H](C)N[P@](=O)(OC[C@H]1O[C@@](C#N)(c2ccc3c(N)ncnn23)[C@H](O)[C@@H]1O)Oc1ccccc1` [Remdesivir, reference compound]: the half-maximal inhibitory concentration (IC50) in the data set on SARS-CoV-2 [2] (setting [10]) amounted to 1030 nM; in the data set with SARS-CoV-2 [2] (setting [11]), 760 nM; with SARS-CoV-2 [3] (setting [10]), 2240 nM; in the data set on SARS-CoV-2 [3] (setting [11]), 4600 nM; with SARS-CoV-2 [7], 100 nM; in the data set on SARS-CoV-2 [8] (setting [12]), 1060 nM. Also, the IC50 with SARS-CoV-2 [8] (setting [13]) was determined as 2750 nM; in the data set with SARS-CoV-2 [9] it was 220 nM. For the same molecule, the EC50 in the data set on SARS-CoV-2 [4] (Severe acute respiratory syndrome coronavirus 2, Vero, 24 h) is 533 nM; in the data set with SARS-CoV-2 [5] (setting [10]), 272 nM. Besides, the “dose reduction index (DRI)” value is reported as 2.35 in the data set on SARS-CoV-2 [4] (VERO-STAT1 KO cells at Fa 0.5) and 3.75 in the data set with SARS-CoV-2 [5] (UNCN1T cells).
